The source made the active and inactive calls. The rule behind the calls is not given here.

For data set [1], the system named is Vesicular stomatitis virus. The data set can be described thus: Antiviral activity against vesicular stomatitis virus. The data set is classed as functional, organism-based.
A further data set concerns Vaccinia virus. Put plainly: Antiviral activity against vaccinia virus. The data set is classed as functional, organism-based. The settings on record: Orthopoxvirus vaccinia.
The next data set relates to Reovirus sp. The data set can be described thus: Antiviral activity against Reovirus. Type of data set: functional, organism-based.
In data set [2] the test system is Human immunodeficiency virus 1. Put plainly: Antiviral activity against HIV1. The data set is classed as functional, organism-based.
Data set [3] can be described thus: Cytotoxicity against human MT4 cells after 96 hrs by MTT method. Type of data set: cell-based. On the technique in general: Tetrazolium assays rely on reduction of a dye to a coloured formazan, in cell work by metabolically active cells.
The subject of data set [4] is Bovine viral diarrhea virus 1. The data set can be described thus: Antiviral activity against BVDV NADL in MDBK cells assessed as protection from virus-induced cytopathogenicity by MTT method. Conditions: Bovine viral diarrhea virus isolates and strains. The data set is classed as functional, organism-based. A general note: Protection from cytopathic effect is a common read-out in antiviral testing.

The test system of a further data set is Yellow fever virus. Put plainly: Antiviral activity against YFV in BHK cells assessed as protection from virus-induced cytopathogenicity by MTT method. The data set is classed as functional, organism-based.
Data set [5] deals with Respiratory syncytial virus. Put plainly: Antiviral activity against RSV A2 in VERO76 cells assessed as reduction of plaque number by MTT method. The data set is classed as functional, organism-based. Conditions: human respiratory syncytial virus, A2, Vero 76.
For another data set, the system named is Poliovirus 1. Put plainly: Antiviral activity against Human poliovirus 1 Sabin. The data set is classed as functional.

The CC50 is the concentration at which the toxic effect on the cells reaches its halfway point. Lower therefore signals greater toxicity to the cells. For orientation: EC50 means the midpoint of the concentration-response curve. For `CC(=O)Oc1ccc2ccc(=O)oc2c1Cc1c(N2CCCCC2)oc2ccc3ccccc3c2c1=O`, the outcome (in data set [1]; with Vaccinia virus; in the data set with Reovirus sp.; in data set [2]; in the data set on Poliovirus 1) was inactive. In addition, the cytotoxic concentration (CC50) at 96 h in data set [3] was greater than 100 µM. Besides, the EC50 was determined as 59 µM in data set [4], 77 µM in the data set on Yellow fever virus and 40 µM in data set [5].

Regarding `COCCN(CCOC)c1oc2cc(OC)ccc2c(=O)c1Cc1c(OC(C)=O)ccc2c(C)cc(=O)oc12`, the outcome (in [1]; in the data set with Vaccinia virus; in the data set on Reovirus sp.; in data set [2]; with Poliovirus 1) was inactive. This compound showed a CC50 at 96 h in [3] greater than 100 µM. Also, the concentration for a half-maximal effect (EC50) in [4] is 61 µM; in the data set with Yellow fever virus, greater than 100 µM; in data set [5], 5 µM.

For `O=c1ccc2ccc(O)c(CN3CCOCC3)c2o1`, the outcome (in data set [1]; in the data set on Vaccinia virus; with Reovirus sp.; in data set [2]; with Poliovirus 1) was inactive. This compound came in with a CC50 at 96 h in data set [3] greater than 100 µM. The half-maximal effective concentration (EC50) (in data set [4]; with Yellow fever virus; in [5]) was greater than 100 µM in each case.

In the case of `Cc1cc(=O)oc2c(CN3CCc4ccccc4C3)c(O)ccc12`, the result (in data set [1]; with Vaccinia virus; with Reovirus sp.; in data set [2]; in the data set with Poliovirus 1) was inactive. The same compound registered a half-maximal cytotoxic concentration (CC50) at 96 h in data set [3] greater than 100 µM. Also, the EC50 (in data set [4]; in the data set with Yellow fever virus; in [5]) was greater than 100 µM in each case.

For `O=C(Oc1ccc2ccc(=O)oc2c1CN1CCc2ccccc2C1)c1ccccc1`, the result (in data set [1]; in the data set on Vaccinia virus; in the data set on Reovirus sp.; in data set [2]; with Poliovirus 1) was inactive. In [3], this compound had a CC50 at 96 h greater than 100 µM. The EC50 is greater than 100 µM in [4], greater than 100 µM with Yellow fever virus and 1 µM in [5].

As for `CCCOc1ccc2c(C)cc(=O)oc2c1CN1CCOCC1`, the outcome (in data set [1]; in the data set with Vaccinia virus; in the data set on Reovirus sp.; in [2]; in the data set on Poliovirus 1) was inactive. The compound also gave a CC50 at 96 h in data set [3] greater than 100 µM. Besides, the EC50 (in data set [4]; with Yellow fever virus; in data set [5]) was greater than 100 µM throughout.

Turning to `COc1ccc2c(=O)c(Cc3c(OC(C)=O)ccc4ccc(=O)oc34)c(N3CCCC3)oc2c1`, the outcome (in data set [1]; with Vaccinia virus; in the data set with Reovirus sp.; in data set [2]; in the data set on Poliovirus 1) was inactive. In addition, the CC50 at 96 h in [3] is greater than 100 µM. Also, the 50% effective concentration (EC50) (in data set [4]; with Yellow fever virus; in data set [5]) was greater than 100 µM throughout.

With `O=c1cnn([C@@H]2O[C@H](CO)[C@@H](O)[C@H]2O)c(=O)[nH]1` [6-AZAURIDINE], the outcome (in data set [1]; in the data set on Vaccinia virus; in the data set on Reovirus sp.; in [2]; in the data set with Poliovirus 1) was inactive. The compound further returned a 50% cytotoxic concentration (CC50) at 96 h in data set [3] of 0.2 µM. Moreover, the EC50 is greater than 25 µM in data set [4], 25 µM in the data set on Yellow fever virus and 1 µM in data set [5].

Take `CCC(=O)Oc1ccc2ccc(=O)oc2c1Cc1c(-c2ccccc2)[nH]c2ccccc12`: the outcome (in [1]; in the data set with Vaccinia virus; in the data set on Reovirus sp.; in [2]; in the data set with Poliovirus 1) was inactive. This compound also yielded a 50% cytotoxic concentration (CC50) at 96 h in data set [3] greater than 100 µM. The EC50 in [4] was greater than 100 µM; in the data set with Yellow fever virus it was greater than 82 µM; in data set [5], greater than 100 µM.

For the compound `CCOC(=O)N1CCN(Cc2c(OC(=O)c3ccccc3)ccc3ccc(=O)oc23)CC1`, the result (in [1]; with Vaccinia virus; with Reovirus sp.; in [2]; in the data set with Poliovirus 1) was inactive. In [3], this compound gave a cytotoxic concentration (CC50) at 96 h greater than 100 µM. In addition, the EC50 in [4] was greater than 100 µM; with Yellow fever virus, greater than 100 µM; in data set [5], 90 µM.

As to `CC(=O)Oc1ccc2c(C)cc(=O)oc2c1Cc1c(N(C)C)oc2ccc3ccccc3c2c1=O`, the result (in data set [1]; in the data set with Vaccinia virus; with Reovirus sp.; in data set [2]; in the data set with Poliovirus 1) was inactive. In [3], this compound registered a CC50 at 96 h greater than 100 µM. In addition, the EC50 in data set [4] is greater than 100 µM; in the data set on Yellow fever virus, greater than 100 µM; in [5], greater than 13 µM.

`COCCN(CCOC)c1oc2ccc3ccccc3c2c(=O)c1Cc1c(OC(C)=O)ccc2c(C)cc(=O)oc12`: the outcome (in data set [1]; in the data set on Vaccinia virus; in the data set on Reovirus sp.; in [2]; with Poliovirus 1) was inactive. The same compound came in with a CC50 at 96 h in [3] greater than 100 µM. In addition, the concentration giving a half-maximal response (EC50) in [4] was greater than 100 µM; in the data set on Yellow fever virus it was greater than 100 µM; in data set [5], no less than 100 µM.

Consider `Cc1cc(=O)oc2c(CN3CCN(C)CC3)c(O)ccc12`, for which the result (in data set [1]; with Vaccinia virus; in the data set on Reovirus sp.; in [2]; in the data set on Poliovirus 1) was inactive. This compound also registered a CC50 at 96 h in data set [3] greater than 100 µM. The EC50 (in [4]; in the data set with Yellow fever virus; in data set [5]) was greater than 100 µM in each case.

`CCCCCCCCOc1ccc2c(=O)c(Cc3c(OC(C)=O)ccc4c(C)cc(=O)oc34)c(N(CC)CC)oc2c1`: the result (in data set [1]; in the data set on Vaccinia virus; in the data set with Reovirus sp.; in data set [2]; in the data set with Poliovirus 1) was inactive. Besides, in [3], the CC50 at 96 h is greater than 100 µM. For the same compound, the EC50 (in data set [4]; with Yellow fever virus; in data set [5]) was greater than 100 µM each time.

`CCOC(=O)N1CCN(Cc2c(O)ccc3c(C)cc(=O)oc23)CC1`: the result (in [1]; in the data set on Vaccinia virus; in the data set with Reovirus sp.; in data set [2]; with Poliovirus 1) was inactive. The compound also yielded a half-maximal cytotoxic concentration (CC50) at 96 h in [3] greater than 100 µM. Moreover, the EC50 in data set [4] is greater than 100 µM; in the data set on Yellow fever virus, greater than 100 µM; in data set [5], no less than 100 µM.

Take `Cc1cc(=O)oc2c(CN3CCOCC3)c(OC(=O)c3ccccc3)ccc12`: the result (in [1]; with Vaccinia virus; with Reovirus sp.; in [2]; in the data set with Poliovirus 1) was inactive. Besides, in data set [3], the cytotoxic concentration (CC50) at 96 h was greater than 100 µM. Besides, the EC50 (in data set [4]; with Yellow fever virus; in data set [5]) was greater than 100 µM each time.

Regarding `CCC(=O)Oc1ccc2c(C)cc(=O)oc2c1Cc1c(-c2ccccc2)[nH]c2ccccc12`, the outcome (in [1]; with Vaccinia virus; in the data set with Reovirus sp.; in data set [2]; in the data set with Poliovirus 1) was inactive. The compound also registered a CC50 at 96 h in [3] of 38 µM. Also, the EC50 in [4] was 7 µM; in the data set on Yellow fever virus, greater than 27 µM; in data set [5] it was greater than 100 µM.

Turning to `Cc1cc(=O)oc2c(CN3CCOCC3)c(O)ccc12`, the result (in data set [1]; with Vaccinia virus; with Reovirus sp.; in data set [2]; in the data set on Poliovirus 1) was inactive. Also, the CC50 at 96 h in data set [3] was greater than 100 µM. The EC50 (in data set [4]; in the data set with Yellow fever virus; in data set [5]) was greater than 100 µM throughout.

For `CCCOc1ccc2ccc(=O)oc2c1CN1CCN(C/C=C/c2ccccc2)CC1`, the result (in [1]; in the data set with Vaccinia virus; in the data set with Reovirus sp.; in data set [2]; in the data set on Poliovirus 1) was inactive. This compound displayed a cytotoxic concentration (CC50) at 96 h in data set [3] of 16 µM. The EC50 was 15 µM in data set [4], greater than 48 µM in the data set with Yellow fever virus and greater than 100 µM in data set [5].

For the compound `CCCOc1ccc2c(C)cc(=O)oc2c1CN1CCN(C/C=C/c2ccccc2)CC1`, the result (in data set [1]; in the data set with Vaccinia virus; with Reovirus sp.; in data set [2]; with Poliovirus 1) was inactive. In data set [3], this compound had a CC50 at 96 h greater than 100 µM. Further, the values for the half-maximal effective concentration (EC50) (in [4]; in the data set with Yellow fever virus; in [5]) were 27 µM, greater than 53 µM and greater than 100 µM, respectively.

As to `CC(=O)Oc1ccc2c(C)cc(=O)oc2c1Cc1c(C)n(C)c2ccccc12`, the outcome (in [1]; in the data set with Vaccinia virus; in the data set with Reovirus sp.; in data set [2]; with Poliovirus 1) was inactive. Further, in data set [3], the CC50 at 96 h worked out at 24 µM. Also, the EC50 in data set [4] is greater than 40 µM; in the data set on Yellow fever virus, greater than 58 µM; in [5], 26 µM.

The values above are taken from ChEMBL document CHEMBL1144007, “Activity of Mannich bases of 7-hydroxycoumarin against Flaviviridae” (Bioorg Med Chem, 2008).
